According to ChEMBL document CHEMBL4665712, “Phosphonium-ammonium-based di-cationic ionic liquids as antibacterial over the ESKAPE group” (Bioorg Med Chem Lett, 2020):

Columns and labels:
Acinetobacter baumannii = assay: Antibacterial activity against Acinetobacter baumannii ATCC 19606; type: functional; conditions: ATCC 19606 = CIP 70.34 = JCM 6841
Escherichia coli = assay: Antibacterial activity against Escherichia coli CIP 54.8; type: functional
Klebsiella pneumoniae = assay: Antibacterial activity against Klebsiella pneumoniae CIP 82.91; type: functional
Staphylococcus aureus = assay: Antibacterial activity against Staphylococcus aureus CIP 7625; type: functional
Pseudomonas aeruginosa = assay: Antibacterial activity against Pseudomonas aeruginosa 100720; type: functional
Enterococcus faecium = assay: Antibacterial activity against Enterococcus faecium 20477; type: functional
HepG2 = assay: Cytotoxicity against human HepG2 cells assessed as reduction in cell viability; type: cell-based

SMILES	MIC (Acinetobacter baumannii) [µg/mL]	MIC (Escherichia coli) [µg/mL]	MIC (Klebsiella pneumoniae) [µg/mL]	MIC (Staphylococcus aureus) [µg/mL]	MIC (Pseudomonas aeruginosa) [µg/mL]	MIC (Enterococcus faecium) [µg/mL]	Activity (HepG2)
CCCCCC[P+](CCCCCC)(CCCCCC)CCCCCCCCCC[P+](CCCC)(CCCC)CCCC.[Br-].[Br-]	8	4	16	0.5	64	2	Toxic
CCCCCC[N+](CCCCCC)(CCCCCC)CCCCCCCCCC[N+](CCCCCC)(CCCCCC)CCCCCC.[Br-].[Br-]	16	2	4	0.5	8	0.5	Toxic
CCCCCC[P+](CCCCCC)(CCCCCC)CCCCCCCCCC[P+](CCCCCC)(CCCCCC)CCCCCC.[Cl-].[Cl-]	2	2	2	0.5	4	0.5	–
CCCCCCCC[P+](CCCCCCCC)(CCCCCCCC)CCCCCC[P+](CCCCCC)(CCCCCC)CCCCCC.[Br-].[Br-]	4	8	4	1	8	2	–
CCCCCC[P+](CCCCCC)(CCCCCC)CCCCCCCCCC[P+](CCCCCC)(CCCCCC)CCCCCC.[I-].[I-]	2	2	2	0.5	2	0.5	–
CCCCCCCC[P+](CCCCCCCC)(CCCCCCCC)CCCCCC[P+](CCCCCCCC)(CCCCCCCC)CCCCCCCC.[Br-].[Br-]	8	32	32	1	> 64	2	–
CCCC[P+](CCCC)(CCCC)CCCCCCCCCC[P+](CCCC)(CCCC)CCCC.[Br-].[Br-]	> 64	> 64	> 64	16	> 64	> 64	Toxic
CCCCCCCC[P+](CCCCCCCC)(CCCCCCCC)CCCCCCCCCC[P+](CCCCCCCC)(CCCCCCCC)CCCCCCCC.[Br-].[Br-]	> 64	> 64	> 64	16	> 64	32	Toxic
CCCCCC[N+](CCCCCC)(CCCCCC)CCCCCCCCCC[P+](CCCCCC)(CCCCCC)CCCCCC.[Br-].[Br-]	8	2	2	0.5	8	1	Toxic
CCCCCC[P+](CCCCCC)(CCCCCC)CCCCCC[P+](CCCCCC)(CCCCCC)CCCCCC.[Br-].[Br-]	16	4	8	0.5	8	0.5	–

Further lines, with some results ahead:

MIC (Acinetobacter baumannii) [µg/mL]	MIC (Escherichia coli) [µg/mL]	MIC (Klebsiella pneumoniae) [µg/mL]	MIC (Staphylococcus aureus) [µg/mL]	MIC (Pseudomonas aeruginosa) [µg/mL]	MIC (Enterococcus faecium) [µg/mL]	SMILES	Activity (HepG2)
> 64	> 64	> 64	2	> 64	8	CCCCCC[P+](CCCCCC)(CCCCCC)CCCCCC[P+](CCCC)(CCCC)CCCC.[Br-].[Br-]	–
> 64	32	> 64	1	> 64	1	CCCCCC[N+](CCCCCC)(CCCCCC)CCCCCC[N+](CCCCCC)(CCCCCC)CCCCCC.[Br-].[Br-]	–
> 64	> 64	> 64	> 64	> 64	> 64	CCCC[P+](CCCC)(CCCC)CCCCCC[P+](CCCC)(CCCC)CCCC.[Br-].[Br-]	–
4	2	4	0.5	4	1	CCCCCC[P+](CCCCCC)(CCCCCC)CCCCCCCCCC[P+](CCCCCC)(CCCCCC)CCCCCC.[Br-].[Br-]	Toxic
> 64	16	64	1	> 64	2	CCCCCC[N+](CCCCCC)(CCCCCC)CCCCCCCCCC[P+](CCCC)(CCCC)CCCC.[Br-].[Br-]	–
> 64	> 64	> 64	32	> 64	64	CCCCCC[N+](CCCCCC)(CCCCCC)CCCCCC[P+](CCCC)(CCCC)CCCC.[Br-].[Br-]	–
